This note sets out measurements from patent publication US6573286B1, “2-(2,6-disubstituted phenyl)-4-aryl-5-alkyl-1,3-oxazoline compounds” (Dow AgroSciences LLC, priority 2002, dated 2003).

Format in all cases: in vivo
Test [1] relates to cabbage looper (Trichoplusia ni). In words: Insecticidal test for cabbage looper, treated cabbage leaf disc. The note with it: Trichoplusia ni, foliar, 120 h, 2nd instar larvae on dipped cabbage leaf discs, 5 days, read-out: CL: activity against cabbage looper (% Control rating). Here is the method:
(§1) Insecticidal test for tobacco budworm (Heliothis virescens), beet armyworm (Spodoptera exigua), and cabbage looper (Trichoplusia ni). To prepare test solution, the test compound was formulated at 400 ppm in 7.5 mL of 2 acetone:1 tap water. 250 μL of the test solution was pipetted upon the surface of 8 mL of lepidopteran diet (modified Shorey) contained in each of five one-ounce plastic cups (one cup=1 replication). […] After air-drying, the treated leaf discs were placed individually into one-ounce plastic cups. Each dried, treated cotton cotyledon disc was infested with a 2nd instar tobacco budworm larva, and each cabbage leaf disc was infested with a 2nd instar cabbage looper larva. Cups containing the treated substrates and larvae were capped and then held in a growth chamber at 25° C., 50-55% RH, and 14 hr light:10 hr dark for 5 days.

Test [2] has as its system two-spotted spider mite (Tetranychus urticae). In words: Insecticidal test for two-spotted spider mite, ovicide method. The note with it: Tetranychus urticae, foliar, 144 h, ovicide method on cotton leaf discs, 6 days, read-out: SM: activity against two-spotted spider mite (% Control rating). The method, then:
Insecticidal test for two-spotted spider mite (Tetranychus urticae) Ovicide Method: Ten adult female two-spotted spider mites were placed on eight 2.2 cm leaf discs of cotton leaf, allowed to oviposit over 24 hours, and thereafter removed. […] Discs were placed on an agar substrate and held at 24° C. and 90% RH for 6 days.

Test [3] concerns beet armyworm (Spodoptera exigua). In words: Insecticidal test for beet armyworm, treated lepidopteran diet. The note with it: Spodoptera exigua, 120 h, 2nd instar larvae on treated diet, 5 days, read-out: BAW: activity against beet armyworm (% Control rating). Here is the method:
as §1

Test [4] relates to Sweetpotato Whitefly (Bemisia tabacia). In words: Insecticidal test for Sweetpotato Whitefly, sprayed cotton plants. The note with it: Bemisia, 312 h, 200 ppm spray, large nymphs counted after 13 days, read-out: WF: activity against whitefly (% Control rating). Here is the method: Insecticidal test for Sweetpotato Whitefly (Bemisia tabacia) Four mg of each test compound were dissolved by adding 4 mL of a 90:10 acetone:ethanol solvent mixture to the vial containing the sample compound. This solution was added to 16 mL of water containing 0.05% Tween 20 surfactant to produce 20 mL of a 200 ppm spray solution. Five-week-old cotton plants reared in a greenhouse were stripped of all foliage except for the two uppermost true leaves that were greater than 5 cm in diameter. These plants were then placed into a laboratory colony of whiteflies for two days for oviposition by the colony females. All whiteflies were then removed from the test plants with pressurized air. The spray solution was then applied to the test plants with a hand-held syringe fitted with hollow cone nozzle. One mL spray solution was applied to each leaf top and bottom for a total of 4 mL per plant. Four replications of each test compound utilized a total of 16 mL spray solution. Plants were air dried and then placed in a holding chamber (28° C. and 60% RH) for 13 days. Compound efficacy was evaluated by counting, under an illuminated magnifying glass, the number of large nymphs (3rd-4th instar) per leaf. Percent control based on reduction of large nymphs of a test compound compared to solution-only (no test compound) sprayed plants is reported in Table 1-8.

Test [5] concerns cotton aphid (Aphis gossypii). As to the kind of experiment: Insecticidal test for cotton aphid, sprayed squash cotyledons. The note with it: 50 ppm spray, graded after 3 days. The method, then: Insecticidal test for cotton aphid (Aphis gossypii) To prepare spray solutions, 1 mg of each test compound was dissolved into 1 mL of a 90:10 acetone:ethanol solvent. This 1 mL of chemical solution was added to 19 mL of water containing 0.05% Tween 20 surfactant to produce a 50 ppm spray solution. Squash cotyledons were infested with cotton aphid (all life stages) 16-20 hours prior to application of spray solution. The solution was sprayed on both sides of each infested squash cotyledon (0.5 mL×2 each side) with a sweeping action until runoff. The plants were allowed to air dry and held for 3 days in a controlled room at 26° C. and 40% RH after which time the test was graded. Grading was by actual count using a dissecting microscope and comparison of test counts to the untreated check.

Test [6] has as its system tobacco budworm (Heliothis virescens). As to the kind of experiment: Insecticidal test for tobacco budworm, treated cotton cotyledon leaf disc. The note with it: Heliothis virescens, foliar, 120 h, 2nd instar larvae on dipped cotton cotyledon discs, 5 days, read-out: TBW: activity against tobacco budworm (% Control rating). Here is the method: as §1

As to `C[C@@H]1OC(c2c(F)cccc2F)=N[C@@H]1c1ccc(I)cc1` (racemic) [Compound 1, (4R,5S)- and (4S,5R)-4-(4-iodophenyl)-2-(2,6-difluorophenyl)-5-methyl-4,5-dihydro-1,3-oxazole], the results for the pest or weed control at 400 ppm in test [1], in test [3] and in test [6] were 60 to 69%, under 50% and under 50%, respectively. Further, the pest or weed control at 2.5 ppm in test [2] was in the range of 90 to 100%. Moreover, in test [4], the pest or weed control at 200 ppm was 60 to 69%. Further, in test [5], the “CA: activity against cotton aphid (% Control rating)” value (from here on “CA: activity … (% Control rating)”) is given as “A (90-100)”.
Consider `C[C@H]1OC(c2c(F)cccc2F)=N[C@@H]1c1ccc(I)cc1` (racemic) [Compound 22, (4R,5R)- and (4S,5S)-4-(4-iodophenyl)-2-(2,6-difluorophenyl)-5-methyl-4,5-dihydro-1,3-oxazole], for which the pest or weed control at 2.5 ppm in test [2] fell in the range of 90 to 100%. Moreover, the “CA: activity … (% Control rating)” value in test [5] was “A (90-100)”.
`C[C@@H]1OC(c2c(F)cccc2F)=N[C@@H]1c1ccc(-c2ccc(OC(F)(F)F)cc2)cc1` (stereo in doubt) [Compound 51, (4R,5S)-2-(2,6-difluorophenyl)-5-methyl-4-[4′-(trifluoromethoxy)-1,1′-biphenyl-4-yl]-4,5-dihydro-1,3-oxazole]: the pest or weed control at 400 ppm in test [1] lay within 90 to 100%; in test [3], 90 to 100%; in test [6], 80 to 89%. Moreover, the pest or weed control at 2.5 ppm in test [2] fell in the range of 90 to 100%. Also, in test [5], the “CA: activity … (% Control rating)” value is given as “F (less than 50)”.
